Measurements as given in patent publication US8841309B2, “Substituted pyrazines and their use in the treatment of disease” (Boehringer Ingelheim International GmbH, priority 2012, dated 2014).
Counter-ions that a name gives are not always drawn.

What follows are compounds tested against T1, ENaC (Mus musculus, UniProt Q61180+Q9WU38+Q9WU39) (assay: Ussing chamber: short circuit current (I_sc) in mouse kidney M-1 cells, amiloride-sensitive). Details: compound applied to apical solution, 37° C.
T1 construct: Mouse kidney M-1 cells were cultivated in DMEM containing 5% FCS and 5 μM dexamethasone; endogenous in cells; host or cells: mouse kidney M-1 cells
T1 sequence (Q61180 1-699): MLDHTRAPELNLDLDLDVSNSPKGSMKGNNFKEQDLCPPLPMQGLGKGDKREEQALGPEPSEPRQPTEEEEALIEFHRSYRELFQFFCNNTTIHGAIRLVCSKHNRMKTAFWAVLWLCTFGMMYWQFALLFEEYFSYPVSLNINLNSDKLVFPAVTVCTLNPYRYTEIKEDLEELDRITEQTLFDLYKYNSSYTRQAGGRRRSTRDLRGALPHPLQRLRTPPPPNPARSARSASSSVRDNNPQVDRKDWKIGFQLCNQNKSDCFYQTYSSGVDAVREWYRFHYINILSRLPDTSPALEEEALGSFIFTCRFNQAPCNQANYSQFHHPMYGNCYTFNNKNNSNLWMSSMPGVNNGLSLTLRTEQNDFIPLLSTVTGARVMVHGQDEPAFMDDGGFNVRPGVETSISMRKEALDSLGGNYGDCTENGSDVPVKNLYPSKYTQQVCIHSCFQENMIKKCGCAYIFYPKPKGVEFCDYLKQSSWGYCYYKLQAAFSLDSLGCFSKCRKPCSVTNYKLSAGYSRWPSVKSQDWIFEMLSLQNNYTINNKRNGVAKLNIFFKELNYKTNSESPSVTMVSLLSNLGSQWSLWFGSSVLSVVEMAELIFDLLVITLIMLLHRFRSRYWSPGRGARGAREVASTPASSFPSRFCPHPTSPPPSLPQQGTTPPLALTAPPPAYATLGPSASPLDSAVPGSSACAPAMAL
T1 sequence (Q9WU38 1-638): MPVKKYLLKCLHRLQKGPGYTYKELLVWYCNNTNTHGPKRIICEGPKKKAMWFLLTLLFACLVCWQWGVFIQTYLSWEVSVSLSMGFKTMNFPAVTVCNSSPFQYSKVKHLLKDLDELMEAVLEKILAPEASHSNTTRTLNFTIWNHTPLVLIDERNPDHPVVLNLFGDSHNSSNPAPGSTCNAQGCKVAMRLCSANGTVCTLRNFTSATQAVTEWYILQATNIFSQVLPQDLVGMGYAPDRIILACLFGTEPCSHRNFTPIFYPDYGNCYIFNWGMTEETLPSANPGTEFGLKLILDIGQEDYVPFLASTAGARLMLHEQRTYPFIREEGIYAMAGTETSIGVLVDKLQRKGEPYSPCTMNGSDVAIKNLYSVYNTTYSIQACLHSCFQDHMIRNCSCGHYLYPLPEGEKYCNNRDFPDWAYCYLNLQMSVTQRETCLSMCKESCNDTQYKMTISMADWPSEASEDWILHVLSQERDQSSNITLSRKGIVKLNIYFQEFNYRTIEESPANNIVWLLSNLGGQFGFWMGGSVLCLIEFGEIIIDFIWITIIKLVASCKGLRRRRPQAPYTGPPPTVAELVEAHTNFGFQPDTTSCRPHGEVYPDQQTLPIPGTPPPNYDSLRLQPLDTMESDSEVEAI
T1 sequence (Q9WU39 1-655): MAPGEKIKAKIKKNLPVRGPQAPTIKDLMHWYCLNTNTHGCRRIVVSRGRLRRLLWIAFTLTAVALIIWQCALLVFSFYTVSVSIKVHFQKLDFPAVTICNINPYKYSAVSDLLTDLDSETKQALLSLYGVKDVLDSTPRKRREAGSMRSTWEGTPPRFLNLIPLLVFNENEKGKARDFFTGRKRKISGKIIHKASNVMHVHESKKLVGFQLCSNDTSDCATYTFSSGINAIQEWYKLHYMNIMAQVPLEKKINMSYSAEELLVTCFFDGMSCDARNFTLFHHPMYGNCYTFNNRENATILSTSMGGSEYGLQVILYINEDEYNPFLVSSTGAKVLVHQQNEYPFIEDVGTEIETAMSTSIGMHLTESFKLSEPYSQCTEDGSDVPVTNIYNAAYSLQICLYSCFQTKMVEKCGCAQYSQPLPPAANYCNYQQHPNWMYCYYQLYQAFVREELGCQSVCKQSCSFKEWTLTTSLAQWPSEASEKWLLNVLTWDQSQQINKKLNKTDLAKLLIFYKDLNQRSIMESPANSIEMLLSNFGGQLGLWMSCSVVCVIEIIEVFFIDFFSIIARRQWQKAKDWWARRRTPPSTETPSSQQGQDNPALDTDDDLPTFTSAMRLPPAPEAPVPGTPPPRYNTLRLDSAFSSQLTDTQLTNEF
Assay type: cell-based
Experimental: Ussing Chamber: Mouse kidney M-1 cells were cultivated in DMEM containing 5% FCS and 5 μM dexamethasone for 10 to 12 days on polyester transwell filters. Filters were inserted into a teflon-coated well-plate which fit into the in-house ussing chamber system. Prior to measurement the medium of M-1 cells was replaced with Caco-2 transport buffer (Invitrogen, Germany). During measurements, the Ussing chamber temperature was kept at 37° C. Short circuit currents (I_sc) were measured in the voltage-clamp mode using an in-house built amplifier (Boehringer Ingelheim, Biberach) with the software package Lab View for data acquisition and analysis. The transepithelial electrical resistance (TEER) was determined by the application of voltage steps of ±5 mV every 5 sec. Compounds were administered at a final concentration of 3 μM or at increasing concentrations (1-3-10 μM) to the apical solution. At the end of each experiment the amiloride sensitive I_SC was measured by adding 3 μM amiloride to the apical compartment. Results are expressed as inhibition in percent of the amiloride effect or as IC50.

SMILES | IC50 [nM]
CC(C)(C)OC(=O)C1CCN(C(=O)C[N+]23CCC(CC2)[C@H](NC(N)=NC(=O)c2nc(Cl)c(N)nc2N)C3)CC1 [Example 67, (S)-1-[2-(4-tert-butoxycarbonyl-piperidin-1-yl)-2-oxo-ethyl]-3-[N′-(3,5-diamino-6-chloro-pyrazine-2-carbonyl)-guanidino]-1-azonia-bicyclo[2.2.2]octane; chloride] | 40
CCNC(=O)C(c1ccccc1)[N+]12CCC(CC1)[C@H](NC(=N)NC(=O)c1nc(Cl)c(N)nc1N)C2 (stereo partly drawn) [Example 68.1, (S)-3-[N′-(3,5-Diamino-6-chloro-pyrazine-2-carbonyl)-guanidino]-1-(ethylcarbamoyl-phenyl-methyl)-1-azonia-bicyclo[2.2.2]octane bromide] | 18
CC(C)=CC[N+]12CCC(CC1)[C@H](N/C(N)=N/C(=O)c1nc(Cl)c(N)nc1N)C2 [Example 69, (S)-3-[N′-(3,5-Diamino-6-chloro-pyrazine-2-carbonyl)-guanidino]-1-(3-methyl-but-2-enyl)-1-azoniabicyclo[2.2.2]octane chloride] | 188
C[N+]1(Cc2ccccc2)CCC(N/C(N)=N/C(=O)c2nc(Cl)c(N)nc2N)CC1 (stereo not shown) [Example 70, 1-Benzyl-4-[N′-(3,5-diamino-6-chloro-pyrazine-2-carbonyl)-guanidino]-1-methyl-piperidinium chloride] | 106
COC(=O)c1ccc(C[N+]2(C)CCC(NC(N)=NC(=O)c3nc(Cl)c(N)nc3N)CC2)cc1 (stereo not shown) [Example 70.1] | 64
CC[N+]1(Cc2ccccc2)CCC(NC(N)=NC(=O)c2nc(Cl)c(N)nc2N)CC1 (stereo not shown) [Example 70.2] | 52
CCNC(=O)C[N+]1(C)CCC[C@@H](NC(N)=NC(=O)c2nc(Cl)c(N)nc2N)C1 (stereo partly shown) [Example 70.3] | 260
CC[N+]1(CC(=O)Nc2cccc(F)c2)CCC(NC(N)=NC(=O)c2nc(Cl)c(N)nc2N)CC1 (stereo not shown) [Example 70.7] | 31
C[N+]1(Cc2ccccc2)CC[C@H](NC(N)=NC(=O)c2nc(Cl)c(N)nc2N)C1 (stereo partly shown) [Example 71.2] | 113
CN(C(=O)C[N+]1(C)CCC(NC(N)=NC(=O)c2nc(Cl)c(N)nc2N)CC1)c1ccccc1 (stereo not shown) [Example 72.1] | 137
CN(Cc1ccccc1)C(=O)C[N+]1(C)CCC(NC(N)=NC(=O)c2nc(Cl)c(N)nc2N)CC1 (stereo not shown) [Example 72.2] | 76
COC(=O)c1ccccc1NC(=O)C[N+]1(C)CCC(NC(N)=NC(=O)c2nc(Cl)c(N)nc2N)CC1 (stereo not shown) [Example 72.3] | 22
N=C(NC(=O)c1nc(Cl)c(N)nc1N)N[C@@H]1C[N+]2(CC(=O)N[C@@H](Cc3ccccc3)C(=O)O)CCC1CC2 [Example 73, (S)-1-[((S)-1-Carboxy-2-phenyl-ethylcarbamoyl)-methyl]-3-[N′-(3,5-diamino-6-chloro-pyrazine-2-carbonyl)-guanidino]-1-azonia-bicyclo[2.2.2]octane chloride hydrochloride] | 4
N=C(NC(=O)c1nc(Cl)c(N)nc1N)N[C@@H]1C[N+]2(CC(=O)N[C@H](Cc3ccccc3)C(=O)O)CCC1CC2 [Example 73.1, (S)-1-[((R)-1-Carboxy-2-phenyl-ethylcarbamoyl)-methyl]-3-[N′-(3,5-diamino-6-chloro-pyrazine-2-carbonyl)-guanidino]-1-azonia-bicyclo[2.2.2]octane; chloride hydrochloride] | 197
N=C(NC(=O)c1nc(Cl)c(N)nc1N)N[C@@H]1C[N+]2(CC(=O)N3CCC(C(=O)O)CC3)CCC1CC2 [Example 73.2, (S)-1-[2-(4-Carboxy-piperidin-1-yl)-2-oxo-ethyl]-3-[N′-(3,5-diamino-6-chloro-pyrazine-2-carbonyl)-guanidino]-1-azonia-bicyclo[2.2.2]octane chloride hydrochloride] | 269
NC(=NC(=O)c1nc(Cl)c(N)nc1N)N[C@@H]1C[N+]2(CC(=O)NCC3(c4ccccc4)CCOCC3)CCC1CC2 [Example 74] | 15
NC(=NC(=O)c1nc(Cl)c(N)nc1N)NC1C[N+]2(CC(=O)NC3CCC(c4ccccc4)CC3)CCC1CC2 (stereo not shown) [Example 75] | 22
NC(=NC(=O)c1nc(Cl)c(N)nc1N)N[C@@H]1C[N+]2(CC(=O)NCC3CCOCC3)CCC1CC2 [Example 76] | 39
CCOC(=O)c1cccc(CCNC(=O)C[N+]23CCC(CC2)[C@H](NC(N)=NC(=O)c2nc(Cl)c(N)nc2N)C3)c1 [Example 77] | 43
